Measurements from patent US20070003987A1, “Screening method for substance binding to merozoite surface protein-1/42” (priority 2003, published 2007).

Tests used:
MSP142 [1] = target: T1, MSP142 (Plasmodium falciparum, UniProt Q8I0U8); test: competition binding of analogues 258 and 264 against suramin; details: MSP142 0.1 mg/ml, 1 hour
Method: MSP142 (0.1 mg/ml) and fixed concentrations of analogue 258 (5 μM) or 264 (10 μM) were premixed and 90 μL added to a 384-well black polypropylene plate. Suramin was added to give a final concentration in the range 0.01 to 200 μM in a total reaction volume of 100 μL. The plates were incubated at room temperature protected from light for 1 hour, and then read as before. Results are shown in FIG. 10, which is a graph of fluorescence (arbitary units) against concentration of suramin competitor for analogue 258 (white squares) and 264 (black circles).

MSP142 [2] = target: T1, MSP142; test: titration of fluorescent analogues against MSP142; assay type: binding
Method: Analogues 258, 261, 264 and 266 were titrated against (a) PBS buffer only, (b) 0.1 mg/ml bovine serum albumin in PBS or (c) 0.1 mg/ml MSP142 in PBS. Fluorescence observed was compared to naphthalenetrisulphate (non-specific reagent) and suramin.

T1 sequence (Q8I0U8 1327-1699): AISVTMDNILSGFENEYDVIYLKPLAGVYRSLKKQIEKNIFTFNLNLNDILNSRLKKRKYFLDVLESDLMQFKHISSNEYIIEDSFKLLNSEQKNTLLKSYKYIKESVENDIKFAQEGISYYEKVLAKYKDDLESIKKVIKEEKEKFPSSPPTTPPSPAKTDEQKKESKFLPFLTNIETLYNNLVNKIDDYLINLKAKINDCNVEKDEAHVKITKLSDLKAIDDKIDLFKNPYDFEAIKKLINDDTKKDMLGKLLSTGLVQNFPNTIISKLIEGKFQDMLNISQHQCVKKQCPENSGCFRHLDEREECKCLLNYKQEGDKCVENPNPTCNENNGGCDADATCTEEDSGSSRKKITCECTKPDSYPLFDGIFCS

Cc1ccc(C(=O)Nc2ccc(S(=O)(=O)O)c3cc(S(=O)(=O)O)cc(S(=O)(=O)O)c23)cc1NC(=O)c1cccc(NC(=O)Nc2cccc(C(=O)Nc3cc(C(=O)Nc4ccc(S(=O)(=O)O)c5cc(S(=O)(=O)O)cc(S(=O)(=O)O)c45)ccc3C)c2)c1 [suramin]
IC50 (MSP142 [1]; IC50, displacement of analogue 258 from MSP1 by suramin, analogue 258 at 5 μM): 8 µM
IC50 (MSP142 [1]; IC50, displacement of analogue 264 from MSP1 by suramin, analogue 264 at 10 μM): 3 µM
EC50 (MSP142 [2]): ~2 µM
fluorescence in the presence of MSP142 (MSP142 [2]; 0.1 mg/ml MSP142 in PBS, 0.01-200 μM): became fluorescent in the presence of MSP142 specifically
